pEC50: −log10 of the molar value.
Tested on: Nrf2 transcriptional activity (pARE-Luc reporter) in HepG2 cells
Test: In vitro Nrf2 transcriptional activity measurement by ARE-dependent reporter assay in HepG2 cell
Format: cell-based, human
Conditions: Homo sapiens; HepG2 cells transfected with pARE-Luc, 4 hours at 37° C.; luciferase activity of Example 1-54 or Example 17-23 at 3.75 μM defined as 100%
In short: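 Luminescence readout (Bright-Glo) after 4 h, 37° C compound exposure of HepG2 cells carrying the ARE-luciferase vector pGL4.37. Each well converted to % response versus reference compound at 3.75 μM, and EC50 derived from dose-response curves.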

| SMILES | pEC50 |
| --- | --- |
| O=C(O)c1cc(F)c(-c2cccc3c2OCN(C(=O)c2c(Cl)cc(-c4cc5ccccc5o4)cc2Cl)C3)cc1N1C2CCC1COC2 [Compound 3-23, 4-[3-[4-(1-Benzofuran-2-yl)-2,6-dichlorobenzoyl]-2,4-dihydro-1,3-benzoxazin-8-yl]-5-fluoro-2-(3-oxa-8-azabicyclo[3.2.1]octan-8-yl)benzoic acid] | 7.68 |
| O=C(O)c1cc(F)c(-c2cccc3c2OCN(C(=O)c2c(Cl)cc(-c4cccc5ccoc45)cc2Cl)C3)cc1N1C2CCC1COC2 [Compound 3-24, 4-[3-[4-(1-Benzofuran-7-yl)-2,6-dichlorobenzoyl]-2,4-dihydro-1,3-benzoxazin-8-yl]-5-fluoro-2-(3-oxa-8-azabicyclo[3.2.1]octan-8-yl)benzoic acid] | 7.51 |
| O=C(O)c1cc(F)c(-c2cccc3c2OCN(C(=O)c2c(Cl)cc(-c4cncc5ccoc45)cc2Cl)C3)cc1N1C2CCC1COC2 [Compound 3-25, 4-[3-(2,6-Dichloro-4-furo[3,2-c]pyridin-7-ylbenzoyl)-2,4-dihydro-1,3-benzoxazin-8-yl]-5-fluoro-2-(3-oxa-8-azabicyclo[3.2.1]octan-8-yl)benzoic acid] | 8.11 |
| COc1ncc(-c2cc(Cl)c(C(=O)N3COc4c(cccc4-c4cc(N5C6CCC5COC6)c(C(=O)O)cc4F)C3)c(Cl)c2)c2nn(C)nc12 [Compound 3-26, 4-[3-[2,6-Dichloro-4-(4-methoxy-2-methyltriazolo[4,5-c]pyridin-7-yl)benzoyl]-2,4-dihydro-1,3-benzoxazin-8-yl]-5-fluoro-2-(3-oxa-8-azabicyclo[3.2.1]octan-8-yl)benzoic acid] | 8.01 |
| COc1ncc(-c2cc(Cl)c(C(=O)N3COc4c(cccc4-c4cc(N5C6CCC5COC6)c(C(=O)O)cc4F)C3)c(Cl)c2)c2nnn(C)c12 [Compound 3-27, 4-[3-[2,6-Dichloro-4-(4-methoxy-3-methyltriazolo[4,5-c]pyridin-7-yl)benzoyl]-2,4-dihydro-1,3-benzoxazin-8-yl]-5-fluoro-2-(3-oxa-8-azabicyclo[3.2.1]octan-8-yl)benzoic acid] | 8.06 |
| COCCn1cc(-c2cc(Cl)c(C(=O)N3COc4c(cccc4-c4ccc(C(=O)O)c(N5CCOCC5)c4)C3)c(Cl)c2)cn1 [Compound 3-28, 4-[3-[2,6-Dichloro-4-[1-(2-methoxyethyl)pyrazol-4-yl]benzoyl]-2,4-dihydro-1,3-benzoxazin-8-yl]-2-morpholin-4-ylbenzoic acid] | 8.68 |
| COC1CN(c2cc(Cl)c(C(=O)N3COc4c(cccc4-c4cc(N5C6CCC5COC6)c(C(=O)O)cc4F)C3)c(Cl)c2)C1 [Compound 4-1, 4-[3-[2,6-Dichloro-4-(3-methoxyazetidin-1-yl)benzoyl]-2,4-dihydro-1,3-benzoxazin-8-yl]-5-fluoro-2-(3-oxa-8-azabicyclo[3.2.1]octan-8-yl)benzoic acid] | 8.51 |
| CCOC1(C)CN(c2cc(Cl)c(C(=O)N3COc4c(cccc4-c4cc(N5C6CCC5COC6)c(C(=O)O)cc4F)C3)c(Cl)c2)C1 [Compound 4-2, 4-[3-[2,6-Dichloro-4-(3-ethoxy-3-methylazetidin-1-yl)benzoyl]-2,4-dihydro-1,3-benzoxazin-8-yl]-5-fluoro-2-(3-oxa-8-azabicyclo[3.2.1]octan-8-yl)benzoic acid] | 8.92 |
| CCC1(OC)CN(c2cc(Cl)c(C(=O)N3COc4c(cccc4-c4cc(N5C6CCC5COC6)c(C(=O)O)cc4F)C3)c(Cl)c2)C1 [Compound 4-3, 4-[3-[2,6-Dichloro-4-(3-ethyl-3-methoxyazetidin-1-yl)benzoyl]-2,4-dihydro-1,3-benzoxazin-8-yl]-5-fluoro-2-(3-oxa-8-azabicyclo[3.2.1]octan-8-yl)benzoic acid] | 8.77 |
| COCC1CN(c2cc(Cl)c(C(=O)N3COc4c(cccc4-c4cc(N5C6CCC5COC6)c(C(=O)O)cc4F)C3)c(Cl)c2)C1 [Compound 4-4, 4-[3-[2,6-Dichloro-4-[3-(methoxymethyl)azetidin-1-yl]benzoyl]-2,4-dihydro-1,3-benzoxazin-8-yl]-5-fluoro-2-(3-oxa-8-azabicyclo[3.2.1]octan-8-yl)benzoic acid] | 8.49 |
| COC1(C)CN(c2cc(Cl)c(C(=O)N3COc4c(cccc4-c4cc(N5C6CCC5COC6)c(C(=O)O)cc4F)C3)c(Cl)c2)C1 [Compound 4-5, 4-[3-[2,6-Dichloro-4-(3-methoxy-3-methylazetidin-1-yl)benzoyl]-2,4-dihydro-1,3-benzoxazin-8-yl]-5-fluoro-2-(3-oxa-8-azabicyclo[3.2.1]octan-8-yl)benzoic acid] | 8.89 |
| O=C(O)c1cc(F)c(-c2cccc3c2OCN(C(=O)c2c(Cl)cc(N4CC5(COC5)C4)cc2Cl)C3)cc1N1C2CCC1COC2 [Compound 4-6, 4-[3-[2,6-Dichloro-4-(2-oxa-6-azaspiro[3.3]heptan-6-yl)benzoyl]-2,4-dihydro-1,3-benzoxazin-8-yl]-5-fluoro-2-(3-oxa-8-azabicyclo[3.2.1]octan-8-yl)benzoic acid] | 8.10 |
| O=C(O)c1cc(F)c(-c2cccc3c2OCN(C(=O)c2c(Cl)cc(N4CC5(CCC5)C4)cc2Cl)C3)cc1N1C2CCC1COC2 [Compound 4-7, 4-[3-[4-(2-Azaspiro[3.3]heptan-2-yl)-2,6-dichlorobenzoyl]-2,4-dihydro-1,3-benzoxazin-8-yl]-5-fluoro-2-(3-oxa-8-azabicyclo[3.2.1]octan-8-yl)benzoic acid] | 8.48 |
| O=C(O)c1cc(F)c(-c2cccc3c2OCN(C(=O)c2c(Cl)cc(N4CCN5CCC[C@@H]5C4)cc2Cl)C3)cc1N1C2CCC1COC2 [Compound 4-9, 4-[3-[4-[(8aR)-3,4,6,7,8,8a-Hexahydro-1H-pyrrolo[1,2-a]pyrazin-2-yl]-2,6-dichlorobenzoyl]-2,4-dihydro-1,3-benzoxazin-8-yl]-5-fluoro-2-(3-oxa-8-azabicyclo[3.2.1]octan-8-yl)benzoic acid] | 8.66 |
| O=C(O)c1cc(F)c(-c2cccc3c2OCN(C(=O)c2c(Cl)cc(N4CCN(C5CCOC5)CC4)cc2Cl)C3)cc1N1C2CCC1COC2 (centres unmarked) [Compound 4-10, 4-[3-[2,6-Dichloro-4-[4-(oxolan-3-yl)piperazin-1-yl]benzoyl]-2,4-dihydro-1,3-benzoxazin-8-yl]-5-fluoro-2-(3-oxa-8-azabicyclo[3.2.1]octan-8-yl)benzoic acid] | 8.38 |
| O=C(O)c1cc(F)c(-c2cccc3c2OCN(C(=O)c2c(Cl)cc(N4CCNC5(CC5)C4)cc2Cl)C3)cc1N1C2CCC1COC2 [Compound 4-11, 4-[3-[2,6-Dichloro-4-(4,7-diazaspiro[2.5]octan-7-yl)benzoyl]-2,4-dihydro-1,3-benzoxazin-8-yl]-5-fluoro-2-(3-oxa-8-azabicyclo[3.2.1]octan-8-yl)benzoic acid] | 7.60 |
| O=C(O)c1cc(F)c(-c2cccc3c2OCN(C(=O)c2c(Cl)cc(N4CCN(C5CC5)CC4)cc2Cl)C3)cc1N1C2CCC1COC2 [Compound 4-12, 4-[3-[2,6-Dichloro-4-(4-cyclopropylpiperazin-1-yl)benzoyl]-2,4-dihydro-1,3-benzoxazin-8-yl]-5-fluoro-2-(3-oxa-8-azabicyclo[3.2.1]octan-8-yl)benzoic acid] | 8.68 |
| O=C(O)c1cc(F)c(-c2cccc3c2OCN(C(=O)c2c(Cl)cc(N4CCN5CCOC[C@@H]5C4)cc2Cl)C3)cc1N1C2CCC1COC2 [Compound 4-13, 4-[3-[4-[(9aS)-3,4,6,7,9,9a-Hexahydro-1H-pyrazino[2,1-c][1,4]oxazin-8-yl]-2,6-dichlorobenzoyl]-2,4-dihydro-1,3-benzoxazin-8-yl]-5-fluoro-2-(3-oxa-8-azabicyclo[3.2.1]octan-8-yl)benzoic acid] | 8.24 |
| O=C(O)c1cc(F)c(-c2cccc3c2OCN(C(=O)c2c(Cl)cc(N4CCN5CCOC[C@H]5C4)cc2Cl)C3)cc1N1C2CCC1COC2 [Compound 4-14, 4-[3-[4-[(9aR)-3,4,6,7,9,9a-Hexahydro-1H-pyrazino[2,1-c][1,4]oxazin-8-yl]-2,6-dichlorobenzoyl]-2,4-dihydro-1,3-benzoxazin-8-yl]-5-fluoro-2-(3-oxa-8-azabicyclo[3.2.1]octan-8-yl)benzoic acid] | 8.05 |
| CC(C)(O)CN1CCN(c2cc(Cl)c(C(=O)N3COc4c(cccc4-c4cc(N5C6CCC5COC6)c(C(=O)O)cc4F)C3)c(Cl)c2)CC1 [Compound 4-15, 4-[3-[2,6-Dichloro-4-[4-(2-hydroxy-2-methylpropyl)piperazin-1-yl]benzoyl]-2,4-dihydro-1,3-benzoxazin-8-yl]-5-fluoro-2-(3-oxa-8-azabicyclo[3.2.1]octan-8-yl)benzoic acid] | 8.51 |
| O=C(O)c1cc(F)c(-c2cccc3c2OCN(C(=O)c2c(Cl)cc(N4CCN(CC5CCCO5)CC4)cc2Cl)C3)cc1N1C2CCC1COC2 (centres unmarked) [Compound 4-16, 4-[3-[2,6-Dichloro-4-[4-(oxolan-2-ylmethyl)piperazin-1-yl]benzoyl]-2,4-dihydro-1,3-benzoxazin-8-yl]-5-fluoro-2-(3-oxa-8-azabicyclo[3.2.1]octan-8-yl)benzoic acid] | 8.54 |
| O=C(O)c1cc(F)c(-c2cccc3c2OCN(C(=O)c2c(Cl)cc(N4C[C@@H]5C[C@H]4CO5)cc2Cl)C3)cc1N1C2CCC1COC2 [Compound 4-17, 4-[3-[2,6-Dichloro-4-[(1S,4S)-2-oxa-5-azabicyclo[2.2.1]heptan-5-yl]benzoyl]-2,4-dihydro-1,3-benzoxazin-8-yl]-5-fluoro-2-(3-oxa-8-azabicyclo[3.2.1]octan-8-yl)benzoic acid] | 8.40 |
| C[C@@H]1CN(c2cc(Cl)c(C(=O)N3COc4c(cccc4-c4cc(N5C6CCC5COC6)c(C(=O)O)cc4F)C3)c(Cl)c2)CCO1 [Compound 4-18, 4-[3-[2,6-Dichloro-4-[(2R)-2-methylmorpholin-4-yl]benzoyl]-2,4-dihydro-1,3-benzoxazin-8-yl]-5-fluoro-2-(3-oxa-8-azabicyclo[3.2.1]octan-8-yl)benzoic acid] | 8.44 |

Reference: patent US20250171457A1, “NITROGEN-CONTAINING HETEROCYCLIC COMPOUND HAVING NRF2 ACTIVATION EFFECT” (CHUGAI SEIYAKU KABUSHIKI KAISHA, priority 2022, published 2025)
